Laboratory results from patent publication US6716845B2, “Barbituric acid derivatives” (Hoffmann-La Roche Inc., priority 2001, dated 2004).

System: not given
Test: not given
Conditions: not given
`O=C(O)CCC(=O)N1CCN(C2(c3ccc(Oc4ccccc4)cc3)C(=O)NC(=O)NC2=O)CC1` [Example 3, 4-Oxo-4-4-[2,4,6-trioxo-5-(4-phenoxy-phenyl)-hexahydro-pyrimidin-5-yl]-piperazin-1-yl-butyric acid] showed a melting point of 270 to 275 °C.

Molecular target: T1, MMP-8, catalytic domain (Homo sapiens, UniProt P22894)
T1 construct: Enzyme: 8 nM catalytic domain (Met80-Gly242) of human neutrophil collagenase (MMP-8); made in house
T1 sequence (P22894 100-262 limits assumed): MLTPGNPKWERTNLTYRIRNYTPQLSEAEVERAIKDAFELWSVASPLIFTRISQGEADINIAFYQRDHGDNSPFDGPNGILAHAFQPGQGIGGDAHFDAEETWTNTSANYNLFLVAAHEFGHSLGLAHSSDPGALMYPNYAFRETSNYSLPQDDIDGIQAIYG
Test: Inhibition of MMP-8 catalytic domain, fluorogenic DNP-heptapeptide substrate cleavage
Assay type: biochemical
Conditions: not given
Protocol: The results are evaluated by plotting the reciprocal reaction rate against the concentration of the inhibitor.
The synthetic collagenase substrate is a heptapeptide which is coupled, at the C terminus, with DNP (dinitrophenol). Said DNP residue quenches by steric hindrance the fluorescence of the adjacent tryptophane of the heptapeptide. After cleavage of a tripeptide which includes the DNP group, the tryptophane fluorescence increases. The proteolytic cleavage of the substrate therefore can be measured by the fluorescence value.
The assay was performed at 25° C. in a freshly prepared 50 mM Tris buffer (pH 8.0) treated with dithiozone to remove traces of heavy metals. 4 mM CaCl2 was added and the buffer saturated with argon. Stock solutions of adamalysin II were prepared by centrifugation of the protein from an ammonium sulfate suspension and subsequent dissolution in the assay buffer. Stock solutions of collagenase were diluted with the assay buffer. Enzyme concentrations were determined by uv measurements (ε280=2.8 10^4 M^−1 cm^−1, ε288: 2.2 10^4 M^−1·cm^−1) and the stock solutions were stored in the cold. […] Substrate fluorescence was measured at an excitation and emission wavelength of λ=320 and 420 nm, respectively, on a spectrofluorimeter (Perkin Elmer, Model 650-40) equipped with a thermostated cell holder. Substrate hydrolysis was monitored for 10 min. immediately after adding the enzyme. All reactions were performed at least in triplicate. The Ki values-of the inhibitors were calculated from the intersection point of the straight lines obtained by the plots of vo/vi vs. [concentration of inhibitor], whereas IC50 values were calculated from plots of vi/vo [concentration of inhibitor] by non-linear regression with simple robust weighting.
50 mM Tris/HCI pH 7.6 (Tris=Tris-(hydroxymethyl)-aminomethane)
100 mM NaCl/10 mM CaCl2/5% MeOH (if necessary)
Enzyme: 8 nM catalytic domain (Met80-Gly242) of human neutrophil collagenase (MMP-8)
Substrate: 10 microM DNP-Pro-Leu-Gly-Leu-Trp-Ala-D-Arg-NH2
A solution of the enzyme and inhibitor in assay buffer (25° C.) was prepared. The reaction was started by giving the substrate into the solution. The cleavage of the fluorogenic substrate was followed by fluorescence spectroscopy with an excitation and emission wavelength of 280 and 350 nm, respectively. The IC50 value was calculated as the inhibitor concentration, which is necessary to decrease the velocity of the reaction to the half in comparison to the reaction without inhibitor.
`O=C1NC(=O)C(NCCN2CCN(c3ncccn3)CC2)(c2ccc(Oc3ccc(Br)cc3)cc2)C(=O)N1` [Example 2 - no. 10, 5-[4-(4-Bromo-phenoxy)-phenyl]-5-[2-(4-pyrimidin-2-yl-piperazin-1-yl)-ethylamino]-pyrimidine-2,4,6-trione] gave an IC50 of 9 nM.

Same assay, conditions: catalytic domain of human neutrophil collagenase (MMP-8); substrate DNP-Pro-Leu-Gly-Leu-Trp-Ala-D-Arg-NH2; 25° C.; read-out: IC50 Values of MMP-Inhibitor (vs. MMP-8, catalytic domain)
For `O=C1NC(=O)C(c2ccc(Oc3ccc(Cl)cc3)cc2)(N2CCN(CC(O)CO)CC2)C(=O)N1` (stereo not shown) [Example 1, 5-[4-(4-Chloro-phenoxy)-phenyl]-5-[4-(2,3-dihydroxy-propyl)-piperazin-1-yl]-pyrimidine-2,4,6-trione], the IC50 was 11 nM.
In the case of `O=C1NC(=O)C(c2ccc(Oc3ccc(Cl)cc3)cc2)(N2CCN(CCOCCO)CC2)C(=O)N1` [Example 2 - no. 1], the IC50 is reported as 16 nM.
Work on `O=C1NC(=O)C(c2ccc(Oc3ccc(Cl)cc3)cc2)(N2CCN(CC3COC(=O)O3)CC2)C(=O)N1` (stereo not shown) [Example 2 - no. 2, 5-[4-(4-Chloro-phenoxy)-phenyl]-5-[4-(2-oxo-[1,3]dioxolan-4-ylmethyl)-piperazin-1-yl]-pyrimidine-2,4,6-trione] yielded an IC50 of 9 nM.
Molecule `CCOCC(O)CN1CCN(C2(c3ccc(Oc4ccc(Cl)cc4)cc3)C(=O)NC(=O)NC2=O)CC1` (stereo not shown) [Example 2 - no. 3, 5-[4-(4-Chloro-phenoxy)-phenyl]-5-[4-(3-ethoxy-2-hydroxy-propyl)-piperazin-1-yl]-pyrimidine-2,4,6-trione] has an IC50 of 15 nM.
In the case of `O=C1NC(=O)C(c2ccc(Oc3ccc(Cl)c(Cl)c3)cc2)(N2CCN(CCOCCO)CC2)C(=O)N1` [Example 2 - no. 4, 5-[4-(3,4-Dichloro-phenoxy)-phenyl]-5-4-[2-(2-hydroxy-ethoxy)-ethyl]-piperazin-1-yl-pyrimidine-2,4,6-trione], the IC50 is reported as 7 nM.
With `O=C1NC(=O)C(c2ccc(Sc3ccccc3)cc2)(N2CCN(CCOCCO)CC2)C(=O)N1` [Example 2 - no. 5, 5-4-[2-(2-Hydroxy-ethoxy)-ethyl]-piperazin-1-yl-5-(4-phenylsulfanyl-phenyl)-pyrimidine-2,4,6-trione] the IC50 was 19 nM.
With `NS(=O)(=O)c1ccc(CN2CCN(C3(c4ccc(Oc5ccc(Br)cc5)cc4)C(=O)NC(=O)NC3=O)CC2)cc1` [Example 2 - no. 11, 4-(4-5-[4-(4-Bromo-phenoxy)-phenyl]-2,4,6-trioxo-hexahydro-pyrimidin-5-yl-piperazin-1-ylmethyl)-benzenesulfonamide] the IC50 was 11 nM.
For `O=C(O)CCC(=O)N1CCN(C2(c3ccc(Oc4ccccc4)cc3)C(=O)NC(=O)NC2=O)CC1` [Example 3, 4-Oxo-4-4-[2,4,6-trioxo-5-(4-phenoxy-phenyl)-hexahydro-pyrimidin-5-yl]-piperazin-1-yl-butyric acid], the IC50 was 11 nM.
